Literature values in patent US20220184070A1, “LOW-DOSE TRIPLE COMBINATION FORMULATION” (The George Institute for Global Health, priority 2019, published 2022).
Marks after values point to notes of the source that are not given here.

Tested on: plasma glucose

SMILES: N[C@@H](CC(=O)N1CCn2c(nnc2C(F)(F)F)C1)Cc1cc(F)c(F)cc1F [Sitagliptin, sitagliptin]
- Percentage change in plasma glucose from pre-prandial adjusted for placebo, at 2 h PPG (single dose 100 mg monotherapy, published studies): −6.3%
- Difference in mean 2 h post-prandial glucose (PPG) vs placebo (single dose 100 mg, 180 min, FIG. 4): ~1 mmol/L
- Maximum difference in plasma glucose between sitagliptin and placebo (single dose 100 mg, at 120 min post-dose (90 min post-meal), FIG. 4): 1.5 mmol/L
- Percentage change in plasma glucose from pre-prandial adjusted for placebo, Maximum (single dose 100 mg, maximum achieved at 1.5 h post-prandial, published studies): −20.3^a %
- Time at which maximum PPG and serum insulin were achieved (single dose 100 mg, post-dose (0.5 h post-meal), FIG. 4): ~1 h
